Laboratory results taken from US9409975B2, “Antibody binding microbial heparin binding motif to retard or prevent microbial biofilm formation on implanted medical devices” (priority 2012, dated 2016).

Assays:
[1] = tested on: Candida albicans BWP17 wt; assay: Percent hyphae by flow cytometry with or without heparin; type: cell-based; conditions: 100 units/ml heparin; YPD 30° C. or RPMI-HEPES 37° C.
Method: Flow cytometry was performed by inoculating a single colony of BWP17 wt into 3 ml YPD medium and incubating overnight at 30° C. with shaking at 225 rpm. […] One ml aliquots of each mixture were removed, pelleted (7,000 rpm for 3 min), washed twice with PBS, and reconstituted in 1 ml PBS. Flow cytometry analysis was performed using the Imagestream^X flow cytometer (Amnis, Seattle Wash.) equipped with a 405 nm, 488 nm, 653 nm, laser and multi-mag function. The 40× magnification, 10 mm/sec flow rate, and 488 nm laser were used to collect SSC and Brightfield parameters. The flow cell allows particles up to 100 μm wide (height unlimited) to be collected in the instrument. INSPIRE (v.6.0) software was used to acquire events. Software analysis using IDEAS (v5.0) identified percent hyphae using aspect ratio, height and width features using the side scatter (Channel 6) and brightfield (Channel 1) parameters. Objects were selected within each file and tagged to use as identification of truth sets within the population.

[2] = tested on: C. albicans surface proteins; assay: nLC-MSMS semi-quantitation of C. albicans surface proteins in supernatants of heparin-treated versus untreated organisms; type: cell-based, Candida albicans
Method: In other systems, heparin has been reported to cleave surface proteins (56), change protein conformation (57), and bind trypsin-sensitive lysine and arginine residues in histone H1 (58). In order to understand whether incubation with heparin changed the conformation of C. albicans surface proteins, 1×10^7 C. albicans were incubated for one hour at […] on a rotator with pharmacologic heparin (20,000 units/ml) diluted in RPMI-HEPES to a working concentration of 250 units/ml. C. albicans 1×10^7 C. albicans in an equal volume of RPMI-HEPES served as control. Supernatants were removed. 300 μl of Hep+ and Hep− supernatants were incubated with 100 μl avidin agarose beads (Thermo Scientific) for 60 min at room temperature on a rotator in the presence of 50 units heparin (Hep+); an equal volume of RPMI-HEPES was substituted for heparin in the Hep− supernatants. Beads were pelleted, and 100 μl beads were incubated with 100 μl 3.0 M NaCl for 30 mins at room temperature on a rotator. Beads were pelleted and the supernatants were withdrawn; 100 μl TCA was added to 100 μl Hep+ or 100 μl Hep− supernatants and incubated on ice overnight at 4° C. The TCA precipitates were stored at −80° C. until analysis by mass spectroscopy.
Six biological replicates of TCA precipitated protein pellets from equal cellular equivalence of heparin-treated (Hep+) and untreated (Hep−) conditioned medium from cultures of C. albicans were each solubilized in 50 μL Laemmli gel buffer. To remove any residual TCA and to further concentrate the samples, each was subjected to buffer exchange and concentration using an Amicon ultra 3 kDa microfuge filtration cartridge at 14,000×g for 15 min with five subsequent additions of 50 μL of 1× Laemmli gel buffer between spins. The resulting retained proteins (6 Hep+ and 6 Hep−) were subsequently prepared for SDS-PAGE by combining into two pools of three samples for the Hep+ and Hep− conditioned medium. The replicate sample pools were loaded onto two 4-12% mini gels and separated using the MOPS buffer system followed by silver staining to visualize the proteins using the Sigma Proteosilver system. The proteins were prepared for identification and quantitation by mass spectrometry by gridding the gel lanes from the replicates of Hep+ and Hep− samples into 11 equal regions followed by in gel trypsin digestion and extraction of peptides as described (59)
The recovered peptides from the gridded gel sections were analyzed by liquid chromatography coupled nano-electrospray mass spectrometry (nLC-MSMS) on a TripleTOF 5600 mass spectrometer (AB Sciex, Toronto Canada) attached to an Eksigent (Dublin Calif.) nanoLC ultra nanoflow system. […]

[3] = heparin 250 units/ml, compared to untreated organisms

## heparin
[1]
  percent hyphae by flow cytometry: did not differ
[2]; [3]
  increase in VPTTDVSVVDLTVR from Tdh3 in supernatants: five-fold increase
  increase in intensity of IDVVDQAK from Eno1 in supernatants: seven-fold increase
  increase in intensity of SLLDAAVK from Pgk1 in supernatants: ten-fold increase
[2]; versus corresponding peptides from untreated organisms, data not shown
  increased intensities of other peptides from Eno1, Pgk1 and Tdh3: 10-16 fold
